# Assays:
# [1] = molecular target: T1, CAMKK1 (Homo sapiens, UniProt Q8N5S9); assay: KINOMEscan; type: binding; conditions: CAMKK1, 1 uM
# T1 construct: purchased Ambit KINOMEscan (DiscoverX)
# Protocol: (§1) First, we used Ambit's KINOMEscan™ technology to identify those kinases that are inhibited for substrate binding by the compounds, all assayed at 1 μM. Second, we used Invitrogen's SelectScreen® Biochemical Kinase Profiling Service to determine the in vitro IC50s for the compounds against specific kinases.
# [2] = molecular target: T2, LKB1 (Homo sapiens, UniProt Q15831); assay: KINOMEscan; type: binding; conditions: LKB1, 1 uM
# T2 construct: purchased Ambit KINOMEscan (DiscoverX)
# Protocol: as §1
# [3] = molecular target: T3, AXL (Homo sapiens, UniProt P30530); assay: KINOMEscan; type: binding; conditions: 1 uM
# T3 construct: purchased Ambit KINOMEscan (DiscoverX)
# Protocol: as §1
# [4] = molecular target: T4, CSNK1E (Homo sapiens, UniProt P49674); assay: KINOMEscan; type: binding; conditions: 1 uM
# T4 construct: purchased Ambit KINOMEscan (DiscoverX)
# Protocol: as §1
# [5] = molecular target: T5, FER (Homo sapiens, UniProt P16591); assay: KINOMEscan; type: binding; conditions: 1 uM
# T5 construct: purchased Ambit KINOMEscan (DiscoverX)
# Protocol: as §1
# [6] = molecular target: T6, CDK3 (Homo sapiens, UniProt Q00526); assay: KINOMEscan; type: binding; conditions: CDK3, 1 uM
# T6 construct: purchased Ambit KINOMEscan (DiscoverX)
# Protocol: as §1
# [7] = molecular target: T7, RIOK2 (Homo sapiens, UniProt Q9BVS4); assay: KINOMEscan; type: binding; conditions: RIOK2, 1 uM
# T7 construct: purchased Ambit KINOMEscan (DiscoverX)
# Protocol: as §1
# [8] = molecular target: T8, NDR2 (Homo sapiens, UniProt Q9Y2H1); assay: KINOMEscan; type: binding; conditions: NDR2, 1 uM
# T8 construct: purchased Ambit KINOMEscan (DiscoverX)
# Protocol: as §1
# [9] = molecular target: T9, QSK (Homo sapiens, UniProt Q9Y2K2); assay: KINOMEscan; type: binding; conditions: 1 uM
# T9 construct: purchased Ambit KINOMEscan (DiscoverX)
# Protocol: as §1
# [10] = molecular target: T10, RIOK3 (Homo sapiens, UniProt O14730); assay: KINOMEscan; type: binding; conditions: RIOK3, 1 uM
# T10 construct: purchased Ambit KINOMEscan (DiscoverX)
# Protocol: as §1
# [11] = molecular target: T11, MEK4 (Homo sapiens, UniProt P45985); assay: KINOMEscan; type: binding; conditions: MEK4, 1 uM
# T11 construct: purchased Ambit KINOMEscan (DiscoverX)
# T11 sequence (P45985 whole entry): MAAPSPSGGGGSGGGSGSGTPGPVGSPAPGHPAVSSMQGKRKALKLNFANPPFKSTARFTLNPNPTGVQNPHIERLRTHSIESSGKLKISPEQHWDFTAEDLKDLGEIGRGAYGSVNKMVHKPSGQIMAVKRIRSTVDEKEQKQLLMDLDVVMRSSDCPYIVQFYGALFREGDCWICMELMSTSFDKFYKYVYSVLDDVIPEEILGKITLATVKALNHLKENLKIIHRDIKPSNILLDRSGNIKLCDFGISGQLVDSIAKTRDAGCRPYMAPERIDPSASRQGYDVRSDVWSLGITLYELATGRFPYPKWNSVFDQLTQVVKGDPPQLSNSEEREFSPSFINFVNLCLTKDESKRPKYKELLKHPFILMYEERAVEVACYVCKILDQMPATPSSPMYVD
# Protocol: as §1
# [12] = molecular target: T12, SRPK1 (Homo sapiens, UniProt Q96SB4); assay: KINOMEscan; type: binding; conditions: SRPK1, 1 uM
# T12 construct: purchased Ambit KINOMEscan (DiscoverX)
# T12 sequence (Q96SB4 whole entry): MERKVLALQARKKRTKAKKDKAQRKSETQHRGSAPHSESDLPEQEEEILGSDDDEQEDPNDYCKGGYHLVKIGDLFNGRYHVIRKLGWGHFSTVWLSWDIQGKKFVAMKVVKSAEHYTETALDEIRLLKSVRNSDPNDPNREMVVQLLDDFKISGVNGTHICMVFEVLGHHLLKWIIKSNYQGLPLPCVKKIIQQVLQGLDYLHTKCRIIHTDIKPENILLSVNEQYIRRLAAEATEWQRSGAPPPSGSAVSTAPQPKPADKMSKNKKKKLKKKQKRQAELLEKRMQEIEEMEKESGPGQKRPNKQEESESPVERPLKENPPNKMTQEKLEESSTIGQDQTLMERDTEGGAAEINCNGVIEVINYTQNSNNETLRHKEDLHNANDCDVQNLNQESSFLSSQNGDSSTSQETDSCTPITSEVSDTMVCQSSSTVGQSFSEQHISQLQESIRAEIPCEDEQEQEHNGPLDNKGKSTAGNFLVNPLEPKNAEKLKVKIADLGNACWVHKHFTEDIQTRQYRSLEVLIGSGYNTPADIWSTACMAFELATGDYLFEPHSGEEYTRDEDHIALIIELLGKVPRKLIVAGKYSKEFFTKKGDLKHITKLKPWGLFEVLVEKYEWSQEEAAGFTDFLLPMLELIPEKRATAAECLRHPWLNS
# Protocol: as §1
# [13] = molecular target: T13, EPHA2 (Homo sapiens, UniProt P29317); assay: KINOMEscan; type: binding; conditions: EPHA2, 1 uM
# T13 construct: purchased Ambit KINOMEscan (DiscoverX)
# Protocol: as §1
# [14] = molecular target: T14, TESK1 (Homo sapiens, UniProt Q15569); assay: KINOMEscan; type: binding; conditions: TESK1, 1 uM
# T14 construct: purchased Ambit KINOMEscan (DiscoverX)
# T14 sequence (Q15569 whole entry): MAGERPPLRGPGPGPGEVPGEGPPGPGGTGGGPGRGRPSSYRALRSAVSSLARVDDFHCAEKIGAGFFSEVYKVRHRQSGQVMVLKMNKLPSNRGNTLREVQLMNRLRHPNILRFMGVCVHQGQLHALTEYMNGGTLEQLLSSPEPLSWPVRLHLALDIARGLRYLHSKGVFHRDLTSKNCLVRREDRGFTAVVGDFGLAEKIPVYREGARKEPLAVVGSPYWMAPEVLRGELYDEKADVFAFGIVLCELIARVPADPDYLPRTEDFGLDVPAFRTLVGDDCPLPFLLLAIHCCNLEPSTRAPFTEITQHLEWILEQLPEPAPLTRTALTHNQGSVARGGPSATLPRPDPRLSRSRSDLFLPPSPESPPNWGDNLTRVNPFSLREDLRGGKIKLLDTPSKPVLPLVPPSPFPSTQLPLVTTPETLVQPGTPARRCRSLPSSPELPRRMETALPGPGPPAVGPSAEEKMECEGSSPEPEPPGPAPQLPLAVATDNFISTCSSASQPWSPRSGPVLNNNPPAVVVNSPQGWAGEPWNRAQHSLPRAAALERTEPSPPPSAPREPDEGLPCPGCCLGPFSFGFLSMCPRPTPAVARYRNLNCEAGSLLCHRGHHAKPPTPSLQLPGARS
# Protocol: as §1
# [15] = molecular target: T15, PIK3C2G (Homo sapiens, UniProt O75747); assay: KINOMEscan; type: binding; conditions: 1 uM
# T15 construct: purchased Ambit KINOMEscan (DiscoverX)
# Protocol: as §1
# [16] = molecular target: T16, CDKL5 (Homo sapiens, UniProt O76039); assay: KINOMEscan; type: binding; conditions: CDKL5, 1 uM
# T16 construct: purchased Ambit KINOMEscan (DiscoverX)
# Protocol: as §1
# [17] = molecular target: T17, CDK9 (Homo sapiens, UniProt P50750); assay: KINOMEscan; type: binding; conditions: for % binding compared to no inhibitor control: CDK9, 1 uM
# T17 construct: purchased Ambit KINOMEscan (DiscoverX)
# T17 sequence (P50750 whole entry): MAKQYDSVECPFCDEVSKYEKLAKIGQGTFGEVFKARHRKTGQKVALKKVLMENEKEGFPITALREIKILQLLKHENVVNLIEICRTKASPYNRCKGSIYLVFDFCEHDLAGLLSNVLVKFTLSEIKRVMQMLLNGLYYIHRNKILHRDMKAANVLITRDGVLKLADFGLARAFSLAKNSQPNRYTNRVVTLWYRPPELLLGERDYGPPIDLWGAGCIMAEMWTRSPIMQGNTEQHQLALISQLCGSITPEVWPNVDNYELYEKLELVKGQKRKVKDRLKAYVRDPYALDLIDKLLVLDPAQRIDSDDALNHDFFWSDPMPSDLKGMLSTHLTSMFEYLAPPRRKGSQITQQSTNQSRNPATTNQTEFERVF
# Protocol: as §1
# [18] = molecular target: T18, GAK (Homo sapiens, UniProt O14976); assay: KINOMEscan; type: binding; conditions: 1 uM
# T18 construct: purchased Ambit KINOMEscan (DiscoverX)
# Protocol: as §1
# [19] = molecular target: T19, MAP3K2 (Homo sapiens, UniProt Q9Y2U5); assay: KINOMEscan; type: binding; conditions: MAP3K2, 1 uM
# T19 construct: purchased Ambit KINOMEscan (DiscoverX)
# Protocol: as §1
# [20] = molecular target: T20, AURKC (Homo sapiens, UniProt Q9UQB9); assay: KINOMEscan; type: binding; conditions: 1 uM
# T20 construct: purchased Ambit KINOMEscan (DiscoverX)
# T20 sequence (Q9UQB9 whole entry): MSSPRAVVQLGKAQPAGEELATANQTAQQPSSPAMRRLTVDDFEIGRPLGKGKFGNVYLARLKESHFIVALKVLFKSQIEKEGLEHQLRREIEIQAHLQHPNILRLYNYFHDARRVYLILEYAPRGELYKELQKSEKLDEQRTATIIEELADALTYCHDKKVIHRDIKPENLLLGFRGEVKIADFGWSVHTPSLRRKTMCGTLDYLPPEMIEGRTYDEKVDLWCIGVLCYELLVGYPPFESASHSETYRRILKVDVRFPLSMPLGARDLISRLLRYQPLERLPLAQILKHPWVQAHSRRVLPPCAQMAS
# Protocol: as §1
# [21] = molecular target: T21, PIM1 (Homo sapiens, UniProt P11309); assay: KINOMEscan; type: binding; conditions: PIM1, 1 uM
# T21 construct: purchased Ambit KINOMEscan (DiscoverX)
# Protocol: as §1
# [22] = molecular target: T22, PIM3 (Homo sapiens, UniProt Q86V86); assay: KINOMEscan; type: binding; conditions: PIM3, 1 uM
# T22 construct: purchased Ambit KINOMEscan (DiscoverX)
# Protocol: as §1
# [23] = molecular target: T23, ERBB3 (Homo sapiens, UniProt P21860); assay: KINOMEscan; type: binding; conditions: ERBB3, 1 uM
# T23 construct: purchased Ambit KINOMEscan (DiscoverX)
# Protocol: as §1
# [24] = molecular target: T24, MAP3K1 (Homo sapiens, UniProt Q13233); assay: KINOMEscan; type: binding; conditions: MAP3K1, 1 uM
# T24 construct: purchased Ambit KINOMEscan (DiscoverX)
# Protocol: as §1
# [25] = molecular target: T25, BRK (Homo sapiens, UniProt Q13882); assay: KINOMEscan; type: binding; conditions: 1 uM
# T25 construct: purchased Ambit KINOMEscan (DiscoverX)
# T25 sequence (Q13882 whole entry): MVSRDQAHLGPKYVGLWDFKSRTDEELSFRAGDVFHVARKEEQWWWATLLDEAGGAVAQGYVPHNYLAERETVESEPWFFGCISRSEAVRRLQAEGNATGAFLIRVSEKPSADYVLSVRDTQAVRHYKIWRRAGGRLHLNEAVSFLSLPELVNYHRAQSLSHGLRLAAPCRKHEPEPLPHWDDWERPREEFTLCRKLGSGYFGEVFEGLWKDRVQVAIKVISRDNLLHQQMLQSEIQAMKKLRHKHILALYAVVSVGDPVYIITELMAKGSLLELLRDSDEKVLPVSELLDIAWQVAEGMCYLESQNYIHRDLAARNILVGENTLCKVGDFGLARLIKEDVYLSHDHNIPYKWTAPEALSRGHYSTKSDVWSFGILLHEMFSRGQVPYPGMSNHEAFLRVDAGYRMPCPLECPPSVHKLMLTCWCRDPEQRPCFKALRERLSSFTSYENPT
# Protocol: as §1
# [26] = molecular target: T26, TGFBR2 (Homo sapiens, UniProt P37173); assay: KINOMEscan; type: binding; conditions: TGFBR2, 1 uM
# T26 construct: purchased Ambit KINOMEscan (DiscoverX)
# Protocol: as §1
# [27] = molecular target: T27, ERK1 (Homo sapiens, UniProt P27361); assay: KINOMEscan; type: binding; conditions: ERK1, 1 uM
# T27 construct: purchased Ambit KINOMEscan (DiscoverX)
# Protocol: as §1
# [28] = molecular target: T28, TAOK3 (Homo sapiens, UniProt Q9H2K8); assay: KINOMEscan; type: binding; conditions: TAOK3, 1 uM
# T28 construct: purchased Ambit KINOMEscan (DiscoverX)
# Protocol: as §1
# [29] = molecular target: T29, LATS2 (Homo sapiens, UniProt Q9NRM7); assay: KINOMEscan; type: binding; conditions: LATS2, 1 uM
# T29 construct: purchased Ambit KINOMEscan (DiscoverX)
# Protocol: as §1
# [30] = molecular target: T30, FAK (Homo sapiens, UniProt Q05397); assay: KINOMEscan; type: binding; conditions: 1 uM
# T30 construct: purchased Ambit KINOMEscan (DiscoverX)
# T30 sequence (Q05397 whole entry): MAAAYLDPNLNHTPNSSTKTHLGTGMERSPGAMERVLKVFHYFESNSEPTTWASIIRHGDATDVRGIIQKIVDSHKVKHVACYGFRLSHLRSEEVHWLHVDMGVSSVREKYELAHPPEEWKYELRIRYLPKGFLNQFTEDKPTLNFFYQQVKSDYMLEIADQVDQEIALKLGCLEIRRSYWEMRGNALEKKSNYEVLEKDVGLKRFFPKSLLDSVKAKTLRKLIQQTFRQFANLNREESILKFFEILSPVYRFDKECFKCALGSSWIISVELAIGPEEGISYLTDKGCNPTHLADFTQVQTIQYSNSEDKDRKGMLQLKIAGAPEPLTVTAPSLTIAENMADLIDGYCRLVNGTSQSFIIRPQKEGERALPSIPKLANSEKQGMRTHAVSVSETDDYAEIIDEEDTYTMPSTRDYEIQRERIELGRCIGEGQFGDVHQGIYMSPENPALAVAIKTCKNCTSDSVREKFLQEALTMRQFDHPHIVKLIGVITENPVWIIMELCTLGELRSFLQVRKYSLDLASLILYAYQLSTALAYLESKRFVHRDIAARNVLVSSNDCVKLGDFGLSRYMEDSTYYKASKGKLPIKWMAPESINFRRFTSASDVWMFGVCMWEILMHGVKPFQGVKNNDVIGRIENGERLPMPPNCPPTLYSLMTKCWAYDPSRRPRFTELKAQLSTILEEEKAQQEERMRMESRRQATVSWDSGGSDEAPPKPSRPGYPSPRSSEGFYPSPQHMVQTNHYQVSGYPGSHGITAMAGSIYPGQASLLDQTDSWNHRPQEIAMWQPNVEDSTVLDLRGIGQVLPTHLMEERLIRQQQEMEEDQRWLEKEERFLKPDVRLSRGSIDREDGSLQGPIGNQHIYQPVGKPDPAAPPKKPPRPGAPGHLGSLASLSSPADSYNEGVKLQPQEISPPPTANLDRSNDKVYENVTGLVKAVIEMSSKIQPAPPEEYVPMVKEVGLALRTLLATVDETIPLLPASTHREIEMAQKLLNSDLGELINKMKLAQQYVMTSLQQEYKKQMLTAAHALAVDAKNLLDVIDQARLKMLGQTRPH
# Protocol: as §1
# [31] = molecular target: T31, ERN1 (Homo sapiens, UniProt O75460); assay: KINOMEscan; type: binding; conditions: ERN1, 1 uM
# T31 construct: purchased Ambit KINOMEscan (DiscoverX)
# T31 sequence (O75460 19-977): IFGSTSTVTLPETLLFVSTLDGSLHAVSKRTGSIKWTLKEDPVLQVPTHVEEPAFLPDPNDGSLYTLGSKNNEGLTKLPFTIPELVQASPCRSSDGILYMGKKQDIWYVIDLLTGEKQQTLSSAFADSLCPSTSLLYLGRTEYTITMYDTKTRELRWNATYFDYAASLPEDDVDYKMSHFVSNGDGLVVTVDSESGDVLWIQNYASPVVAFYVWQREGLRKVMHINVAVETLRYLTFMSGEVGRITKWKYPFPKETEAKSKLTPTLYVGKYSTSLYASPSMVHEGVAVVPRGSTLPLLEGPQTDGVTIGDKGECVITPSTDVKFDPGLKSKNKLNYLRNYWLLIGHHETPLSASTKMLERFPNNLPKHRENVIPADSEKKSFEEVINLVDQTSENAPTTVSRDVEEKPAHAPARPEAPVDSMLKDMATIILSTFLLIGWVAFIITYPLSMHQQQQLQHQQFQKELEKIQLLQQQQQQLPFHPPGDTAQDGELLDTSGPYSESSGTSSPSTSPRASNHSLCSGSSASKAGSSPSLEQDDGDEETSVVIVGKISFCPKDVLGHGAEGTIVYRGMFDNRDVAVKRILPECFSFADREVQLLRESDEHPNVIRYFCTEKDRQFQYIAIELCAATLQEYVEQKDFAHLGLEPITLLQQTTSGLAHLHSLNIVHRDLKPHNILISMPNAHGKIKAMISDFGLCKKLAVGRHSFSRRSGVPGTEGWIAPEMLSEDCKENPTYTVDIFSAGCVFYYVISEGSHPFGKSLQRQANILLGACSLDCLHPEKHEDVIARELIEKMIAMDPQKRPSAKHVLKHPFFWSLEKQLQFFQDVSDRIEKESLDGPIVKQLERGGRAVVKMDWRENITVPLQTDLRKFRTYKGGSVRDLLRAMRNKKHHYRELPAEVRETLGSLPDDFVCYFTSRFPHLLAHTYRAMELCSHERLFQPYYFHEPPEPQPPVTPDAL
# Protocol: as §1
# [32] = molecular target: T32, MAP3K4 (Homo sapiens, UniProt Q9Y6R4); assay: KINOMEscan; type: binding; conditions: MAP3K4, 1 uM
# T32 construct: purchased Ambit KINOMEscan (DiscoverX)
# Protocol: as §1
# [33] = molecular target: T33, CSK (Homo sapiens, UniProt P41240); assay: KINOMEscan; type: binding; conditions: 1 uM
# T33 construct: purchased Ambit KINOMEscan (DiscoverX)
# Protocol: as §1
# [34] = system: HKe-3 (K-RAS^−/+); assay: Cell viability (Syto60); type: cell-based; conditions: 72 hours; for cooperation with / sensitization to AZ-628 (cell viability): K-RAS wild-type cells (HKe-3), 1 µM AZ-628
# Protocol: All colon cancer cell lines were maintained in DMEM supplemented with penicillin (100 units/mL), streptomycin (100 μg/mL), and 10% fetal bovine serum (FBS). The rectal cancer cell line (Car1) was maintained in DMEM/F12 supplemented with penicillin (100 units/mL)/streptomycin (50 μg/mL), and 5% FBS. […] The target sequences for knockdowns can be found in Table S2. In drug treatment experiments, cells were plated for 24 hours prior to exposure to drug. AZ-628 was obtained from AstraZeneca. CI-1040 was obtained from Pfizer. R406 was synthesized in the Gray laboratory. BAY61-3606 and IKK VII were purchased from EMD Biosciences. BAY derivatives were synthesized for this study.
# Cell cycle analysis was performed via FACS-based propidium iodide quantification, using standard methods. To measure cell viability, cells were grown in 96-well plates in the presence or absence of drug for 72 hours, fixed with 4% paraformaldehyde, and then stained with Syto60 (Invitrogen). Plates were imaged and quantified using the LiCor Odyssey system (LiCor).
Compound,% binding compared to no inhibitor control [1],% binding compared to no inhibitor control [2],% binding compared to no inhibitor control [3],% binding compared to no inhibitor control [4],% binding compared to no inhibitor control [5],% binding compared to no inhibitor control [6],% binding compared to no inhibitor control [7],% binding compared to no inhibitor control [8],% binding compared to no inhibitor control [9],% binding compared to no inhibitor control [10],% binding compared to no inhibitor control [11],% binding compared to no inhibitor control [12],% binding compared to no inhibitor control [13],% binding compared to no inhibitor control [14],% binding compared to no inhibitor control [15],% binding compared to no inhibitor control [16],% binding compared to no inhibitor control [17],% binding compared to no inhibitor control [18],% binding compared to no inhibitor control [19],% binding compared to no inhibitor control [20],other results
"COc1ccc(-c2cc3nccn3c(Nc3ncccc3C(N)=O)n2)cc1OC.Cl.Cl [BAY61-3606, 2-[7-(3,4-dimethoxyphenyl)-imidazo [1,2-c]pyrimidin-5-ylamino] nicotinamide dihydrochloride, reference compound]",48%,95%,92%,94%,69%,89%,4%,68%,100%,98%,45%,88%,100%,90%,23%,60%,56%,30%,55%,92%,"% inhibition ATP binding ([17]; CDK9, KINOMEscan, 1 μM): 44%; % binding compared to no inhibitor control [21]: 78%; % binding compared to no inhibitor control [22]: 81%; % binding compared to no inhibitor control [23]: 100%; % binding compared to no inhibitor control [24]: 100%; % binding compared to no inhibitor control [25]: 87%; % binding compared to no inhibitor control [26]: 31%; % binding compared to no inhibitor control [27]: 100%; % binding compared to no inhibitor control [28]: 100%; % binding compared to no inhibitor control [29]: 45%; % binding compared to no inhibitor control [30]: 69%; % binding compared to no inhibitor control [31]: 72%; % binding compared to no inhibitor control [32]: 100%; % binding compared to no inhibitor control [33]: 68%; sensitization to AZ-628 (cell viability) ([34]; HKe-3 cells with MAP4K2 knockdown, 1 µM + 1 µM AZ-628): no longer sensitizes; cooperation with / sensitization to AZ-628 (cell viability) [34]: became sensitive"
COc1ccccc1Nc1nc(-c2ccc(OC)c(OC)c2)cc2nccn12 [BAY derivative 6],100%,72%,89%,100%,100%,94%,80%,93%,87%,80%,100%,75%,89%,100%,100%,100%,100%,43%,88%,100%,% binding compared to no inhibitor control [21]: 100%; % binding compared to no inhibitor control [22]: 82%; % binding compared to no inhibitor control [23]: 87%; % binding compared to no inhibitor control [24]: 100%; % binding compared to no inhibitor control [25]: 59%; % binding compared to no inhibitor control [26]: 100%; % binding compared to no inhibitor control [27]: 100%; % binding compared to no inhibitor control [28]: 100%; % binding compared to no inhibitor control [29]: 88%; % binding compared to no inhibitor control [30]: 95%; % binding compared to no inhibitor control [31]: 100%; % binding compared to no inhibitor control [32]: 99%; % binding compared to no inhibitor control [33]: 99%; cooperation with / sensitization to AZ-628 (cell viability) [34]: lost its ability to cooperate with AZ-628

# Reference: paper PMC3399817 (PLoS ONE, 2012)
